Measurements as given in patent publication US20050228019A1, “Enhancement of ampakine-Induced facilitation of synaptic responses by cholinesterase inhibitors” (priority 2004, published 2005).
Where “and” joins values, the source holds several entries; their conditions need not be identical. Identical values can stand only once. Entries after “also recorded” stand apart in the source; their conditions may differ.

Assays:
[1] = system: lateral perforant path EPSPs in hippocampal slices; assay: Lateral perforant path EPSPs in hippocampal slices; format: cell-based, Sprague-Dawley rats
Description: Hippocamlpal slice preparation: Hippocampal slices were prepared from male Sprague-Dawley rats, approximately 4-6 weeks of age. Rats were anesthetized with halothane and then sacrificed via decapitation. The brain was quickly removed and placed in icy, oxygenated artificial cerebrospinal fluid (ACSF) of the following composition for dissection (in mM): 124 NaCl, 3 KCl 1.25 KH2PO4, 5 MgSO4, 3.4 CaCl2, 10 D-glucose, 26 NaHCO3. A tissue block containing the hippocampus and surrounding tissue was prepared and glued to the stage of a vibrating tissue slicer (Leica VT1000; Bannockburn, Ill.). Slices were cut roughly perpendicular to the longitudinal axis of the hippocampus at a thickness of 350 μm. Slices were then immediately transferred to an interface recording chamber containing ACSF with the same constituents as described above except that the concentration of MgSO4 was lowered to 2.5 mM. Recording commenced after a recovery period that was ≧1 hour.
In vitro recording: Slices in the interface chamber were maintained at 32±1° C. and continuously perfused with oxygenated recording ACSF at a rate of 60 ml/hr. Additionally, warmed and humidified 95% O2/5% CO2 was blown into the chamber from above. The lateral perforant path was stimulated with twisted nichrome wire (65 μm) in the outer molecular layer of the dentate gyrus. A chloride-coated silver wire was placed in a single glass pipette filled with 2 M NaCl (˜5 MΩ resistance) for recording of field potentials. The recording electrode was also placed in the outer molecular layer of the dentate gyrus to sample the perforant path synapses. Stimulation intensity was adjusted to elicit responses that were typically 1-2 mV in amplitude and ≦50% of the maximal monophasic response. Evoked responses were recorded at 10 kHz using a differential AC amplifier (A-M Systems Model 1700; Carlsborg, Wash.). Baseline responses were monitored every 20 seconds for a minimum of 30 minutes, depending on the length of time necessary to achieve stability.
Drug application: AChE inhibitors enhance transmission at cholinergic synapses by blocking the enzyme that degrades the released transmitter acetylcholine. This causes acetylcholine to remain at relatively high concentrations for a longer period within the synapse and thereby exert a greater than normal effect on acetylcholine receptors. This greater than normal action on acetylcholine receptors can be partially mimicked by applying a compound that directly stimulates the receptors to a degree that is greater than that produced by normally released acetylcholine. […] The effect of each of these treatments on amplitude size and slope of the descending phase of the response waveform was continuously recorded online throughout the entirety of the experiment.

[2] = system: lateral olfactory tract (LOT) evoked responses; assay: Lateral olfactory tract (LOT) evoked responses in awake rats; format: in vivo, Long-Evans rats
Description: (§1) Chronic recording preparation: Adult male Long-Evans rats with recording and stimulating electrodes chronically implanted into different areas of the brain known to subserve memory were used. The electrodes were stereotaxically inserted under pentobarbital anesthesia (65 mg/kg), using procedures essentially as described in earlier work (Stäubli and Xu, Journal of Neuroscience 15: 2445-2452, 1995; Stäubli and Scafidi, Journal of Neuroscience 17: 4820-4828, 1997). Briefly, monopolar stimulating electrodes (125 μm) were placed into the perforant path projections to hippocampal dentate gyrus and into the lateral olfactory tract projections to olfactory cortex. Following these steps, the leads of the electrodes were connected to a headstage that is permanently affixed to the rat's skull.
The animals were allowed approximately 10 days for recovery before being acclimated to a chronic recording cage (30×30×58 cm) and the attachment of a recording lead to their headstage. Biphasic stimulation pulses were provided by a digital stimulator that allows precise control of current intensity and pulse duration. Current intensity (10-80 μA) and pulse width (100-150 μsec) were adjusted to produce an evoked field excitatory postsynaptic potential (evoked fEPSP) that is 50-60% of the maximum amplitude of the population spike-free response which typically ranges between 3 and 7 mV. Recording signals were pre-amplified 10× via a FET operational amplifier built into the recording lead and fed into a second stage amplifier set to a gain of 10, with a band-pass of 1 Hz to 5 kHz. The evoked responses were monitored on a storage oscilloscope and digitized at 10 kHz. The peak amplitude, half-width and area of each response were measured on-line and stored on disk for off-line analysis. Baseline evoked EPSPs were tested at 20 sec intervals for a minimum of 30 to 45 min, or until stable (<10% variability in amplitude). The animal was free to move around the cage throughout the experiment, but was not allowed to fall asleep.
Drug Testing: Once baseline stability was established over at least 30 min, the animal was given an intraperitoneal injection of 1) Ampakine compound alone (e.g., CX717 at 10 mg/kg), or 2) acetylcholinesterase (AChE) inhibitor alone (e.g., physostigmine at 0.1 mg/kg, tacrin at 1 mg/kg, galantamine at 1 mg/kg or donezepil at 1.5 mg/kg) or 3) Ampakine compound plus AChE inhibitor combined, both administered at the same time and at the same dose as when given alone. Each rat received each of these three treatments, but only one treatment was given per day, with several days separating successive treatments. The effect of each of these treatments on amplitude size, halfwidth and area of the field EPSP was continuously recorded for several hours after injection.

[3] = system: monosynaptic responses (field EPSPs) known to be mediated by AMPA receptors; assay: Chronic recording of evoked field EPSPs in freely moving rats (brain area not specified); format: in vivo, Long-Evans rats; details: CX717 10 mg/kg ip alone
Description: as §1
(§2) The animals were allowed approximately 10 days for recovery before being acclimated to a chronic recording cage (30×30×58 cm) and the attachment of a recording lead to their headstage. Biphasic stimulation pulses were provided by a digital stimulator that allows precise control of current intensity and pulse duration. […] The evoked responses were monitored on a storage oscilloscope and digitized at 10 kHz. The peak amplitude, half-width and area of each response were measured on-line and stored on disk for off-line analysis. […]

[4] = system: perforant path evoked responses in the dentate gyrus; assay: Perforant path evoked responses in the dentate gyrus of awake rats; format: in vivo, Long-Evans rats
Description: as §1, §2

[5] = CX717 10 mg/kg co-administered ip with physostigmine 0.1 mg/kg

## C[N+](C)(C)CCOC(N)=O [CCh, carbachol]
[1]; CCh 0.5 μM alone, 20-30 minutes after the start of infusion
  EPSP amplitude: 99.8±2.9 % of baseline
[1]; CCh 0.5 μM by itself
  effect on lateral perforant path EPSPs (amplitude or slope): no discernible effects; also recorded: did not detectably affect synaptic transmission; also recorded: did not affect the amplitude or slope of evoked responses

## O=C(c1ccc2nonc2c1)N1CCOCC1 [CX717]
[2]; [5]
  LOT effect relative to CX717 alone: several times greater than the effects it produced on its own; also recorded: approximately three-fold greater
  increase in LOT response amplitude above baseline: 20-30%
[2]; CX717 10 mg/kg co-injected ip with Aricept 1.5 mg/kg
  LOT effect relative to CX717 alone: several times greater than the effects it produced on its own; also recorded: approximately two-fold greater
[2]; CX717 10 mg/kg co-injected ip with tacrine 1 mg/kg
  LOT effect relative to CX717 alone: several times greater than the effects it produced on its own; also recorded: more than two times greater
[2]; CX717 10 mg/kg ip alone, 10 mg/kg
  increase in LOT response amplitude: ~5% and < 10%
[1]; CX717 40 μM alone, 30 min infusion, last 10 minutes of drug infusion
  response amplitude: 103.5±1.0 % of baseline
[1]; CX717 40 μM in the presence of 0.5 μM CCh
  increase in response size relative to CX717 alone: several fold greater; also recorded: significantly greater than those observed in the absence of CCh
[3]
  increase in amplitude of field EPSP: 5+1%
[4]; CX717 10 mg/kg co-injected ip with physostigmine 0.1 mg/kg
  perforant path effect relative to CX717 alone: significantly higher than the effects of CX717 alone
[4]; CX717 with galantamine 1 mg/kg, data not shown
  increase in perforant path evoked responses on co-administration: Effects of this kind were also obtained
